Assay results as given in US11208412B2 (DAEGU-GYEONGBUK MEDICAL INNOVATION FOUNDATION, priority 2017, dated 2021).

The compounds below were run against T1, recombinant LRRK2 kinase (Homo sapiens, UniProt Q5S007) (assay: LRRK2 kinase inhibition (Kinase-Glo luminescence)). Details: IC50 grade; 25 μmol/L ATP, LRRKtide, 30° C. 2 hours; read-out: Enzyme activity LRRK2.
T1 construct: purchased Signal Chem, Richmond, BC, Canada
Format: biochemical
Experimental: Upon completion of the reaction, an equal amount of Kinase-Glo (Promega, Madison, Wis.) solution was added thereto, followed by reaction for 40 minutes. A detection solution was added thereto, followed by further reaction at room temperature for 30 minutes. Then, IC50 of kinase was calculated by measuring the amount of luciferase using a microplate ELISA reader (Bio-Tek).

T1 sequence (Q5S007 whole entry): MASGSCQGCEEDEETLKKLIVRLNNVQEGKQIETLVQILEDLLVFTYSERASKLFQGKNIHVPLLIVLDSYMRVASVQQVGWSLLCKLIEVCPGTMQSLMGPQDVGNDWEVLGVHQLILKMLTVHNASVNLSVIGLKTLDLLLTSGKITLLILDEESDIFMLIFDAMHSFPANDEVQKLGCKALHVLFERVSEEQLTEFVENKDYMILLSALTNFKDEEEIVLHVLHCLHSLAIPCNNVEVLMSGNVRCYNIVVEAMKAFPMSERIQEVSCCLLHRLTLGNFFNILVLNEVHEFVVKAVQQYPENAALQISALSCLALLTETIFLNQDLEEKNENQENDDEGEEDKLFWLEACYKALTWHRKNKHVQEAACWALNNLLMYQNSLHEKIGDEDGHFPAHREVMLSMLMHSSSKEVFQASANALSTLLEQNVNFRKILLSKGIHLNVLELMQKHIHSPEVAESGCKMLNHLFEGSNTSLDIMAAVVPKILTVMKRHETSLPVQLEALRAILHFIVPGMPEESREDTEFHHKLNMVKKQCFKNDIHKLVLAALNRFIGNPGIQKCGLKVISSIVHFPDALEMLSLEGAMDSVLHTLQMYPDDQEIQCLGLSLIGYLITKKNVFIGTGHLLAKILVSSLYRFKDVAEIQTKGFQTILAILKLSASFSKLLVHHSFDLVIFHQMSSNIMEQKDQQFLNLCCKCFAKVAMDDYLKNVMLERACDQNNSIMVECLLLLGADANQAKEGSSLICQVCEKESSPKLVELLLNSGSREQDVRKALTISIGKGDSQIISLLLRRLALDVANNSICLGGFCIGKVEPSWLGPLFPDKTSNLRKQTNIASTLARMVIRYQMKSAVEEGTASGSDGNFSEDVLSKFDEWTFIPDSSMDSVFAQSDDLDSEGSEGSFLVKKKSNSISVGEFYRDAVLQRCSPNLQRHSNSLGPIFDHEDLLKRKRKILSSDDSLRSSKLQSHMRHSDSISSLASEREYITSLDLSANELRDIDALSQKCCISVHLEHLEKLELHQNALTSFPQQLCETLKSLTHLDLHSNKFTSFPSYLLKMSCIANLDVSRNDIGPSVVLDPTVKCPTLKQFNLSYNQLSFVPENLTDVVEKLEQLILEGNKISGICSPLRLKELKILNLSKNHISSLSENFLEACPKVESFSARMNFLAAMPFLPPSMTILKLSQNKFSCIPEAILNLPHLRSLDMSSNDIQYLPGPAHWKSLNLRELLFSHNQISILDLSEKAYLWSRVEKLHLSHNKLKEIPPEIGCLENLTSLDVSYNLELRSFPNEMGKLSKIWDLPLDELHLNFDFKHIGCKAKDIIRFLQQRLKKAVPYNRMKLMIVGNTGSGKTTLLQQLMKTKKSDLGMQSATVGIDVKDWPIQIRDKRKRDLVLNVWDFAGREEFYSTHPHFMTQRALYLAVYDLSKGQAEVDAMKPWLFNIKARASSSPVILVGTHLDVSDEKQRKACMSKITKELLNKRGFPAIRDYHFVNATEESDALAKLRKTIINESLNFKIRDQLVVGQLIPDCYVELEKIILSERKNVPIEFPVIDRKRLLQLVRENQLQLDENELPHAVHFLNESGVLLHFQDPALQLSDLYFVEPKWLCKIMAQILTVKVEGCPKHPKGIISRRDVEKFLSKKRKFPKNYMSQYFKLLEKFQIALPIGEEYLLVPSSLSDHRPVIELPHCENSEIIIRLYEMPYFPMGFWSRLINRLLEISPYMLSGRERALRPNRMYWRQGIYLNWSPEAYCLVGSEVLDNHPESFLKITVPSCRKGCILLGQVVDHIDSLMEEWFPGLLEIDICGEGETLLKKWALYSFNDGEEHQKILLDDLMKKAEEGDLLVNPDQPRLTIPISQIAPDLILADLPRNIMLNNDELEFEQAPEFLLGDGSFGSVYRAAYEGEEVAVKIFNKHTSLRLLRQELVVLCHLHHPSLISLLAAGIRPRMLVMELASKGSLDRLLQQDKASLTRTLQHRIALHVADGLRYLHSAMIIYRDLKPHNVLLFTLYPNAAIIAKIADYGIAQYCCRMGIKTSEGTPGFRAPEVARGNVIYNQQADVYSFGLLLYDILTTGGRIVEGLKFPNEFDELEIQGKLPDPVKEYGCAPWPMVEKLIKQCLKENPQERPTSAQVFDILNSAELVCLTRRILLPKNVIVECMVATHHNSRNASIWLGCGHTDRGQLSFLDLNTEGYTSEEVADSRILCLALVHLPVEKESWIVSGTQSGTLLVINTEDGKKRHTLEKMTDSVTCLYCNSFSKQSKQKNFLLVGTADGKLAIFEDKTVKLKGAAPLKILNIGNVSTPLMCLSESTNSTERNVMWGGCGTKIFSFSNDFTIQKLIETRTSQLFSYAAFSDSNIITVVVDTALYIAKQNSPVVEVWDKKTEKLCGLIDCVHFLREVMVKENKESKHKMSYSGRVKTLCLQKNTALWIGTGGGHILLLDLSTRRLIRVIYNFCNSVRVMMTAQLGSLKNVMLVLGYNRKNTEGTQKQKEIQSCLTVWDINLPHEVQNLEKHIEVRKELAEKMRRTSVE

IC50 | SMILES
< 10 nM | CNc1nc(Nc2cnn(C(C)(C)C#N)c2Cl)nc2[nH]cc(C#N)c12 [Example 73, 2-((5-chloro-1-(2-cyanopropane-2-yl)-1H-pyrazole-4-yl)amino)-4-(methylamino)-7H-pyrrolo[2,3-d]pyrimidine-5-carbonitrile]
< 10 nM | CCNc1nc(Nc2cnn(C(C)(C)C#N)c2Cl)nc2[nH]cc(C#N)c12 [Example 74, 2-((5-chloro-1-(2-cyanopropane-2-yl)-1H-pyrazole-4-yl)amino)-4-(ethylamino)-7H-pyrrolo[2,3-d]pyrimidine-5-carbonitrile]
< 10 nM | CNc1nc(Nc2ccc(C(=O)N3CCN(C)C[C@H]3C)cc2OC)nc2[nH]cc(C#N)c12 [Example 75, (R)-2-((4-(2,4-dimethylpiperazine-1-carbonyl)-2-methoxyphenyl)amino)-4-(methylamino)-7H-pyrrolo[2,3-d]pyrimidine-5-carbonitrile]
< 10 nM | CCNc1nc(Nc2ccc(C(=O)N3CCN(C)C[C@H]3C)cc2OC)nc2[nH]cc(C#N)c12 [Example 76, (R)-2-((4-(2,4-dimethylpiperazine-1-carbonyl)-2-methoxyphenyl)amino)-4-(ethylamino)-7H-pyrrolo[2,3-d]pyrimidine-5-carbonitrile]
> 100 nM | CNc1nc(Nc2c(C)nn(C(C)(C)C#N)c2C)nc2[nH]cc(C#N)c12 [Example 77, 2-((1-(2-cyanopropane-2-yl)-3,5-dimethyl-1H-pyrazole-4-yl)amino)-4-(methylamino)-7H-pyrrolo[2,3-d]pyrimidine-5-carbonitrile]
> 100 nM | CCNc1nc(Nc2c(C)nn(C(C)(C)C#N)c2C)nc2[nH]cc(C#N)c12 [Example 78, 2-((1-(2-cyanopropane-2-yl)-3,5-dimethyl-1H-pyrazole-4-yl)amino)-4-(ethylamino)-7H-pyrrolo[2,3-d]pyrimidine-5-carbonitrile]
< 10 nM | CCNc1nc(Nc2cc(F)c(C(=O)N3CCN(C)C[C@H]3C)cc2OC)nc2[nH]cc(C#N)c12 [Example 79, (R)-2-((4-(2,4-dimethylpiperazine-1-carbonyl)-5-fluoro-2-methoxyphenyl)amino)-4-(ethylamino)-7H-pyrrolo[2,3-d]pyrimidine-5-carbonitrile]
10 to 100 nM | CNc1nc(Nc2cc(F)c(C(=O)N3CCN(C)C[C@H]3C)cc2OC)nc2[nH]cc(C#N)c12 [Example 80, (R)-2-((4-(2,4-dimethylpiperazine-1-carbonyl)-5-fluoro-2-methoxyphenyl)amino)-4-(methylamino)-7H-pyrrolo[2,3-d]pyrimidine-5-carbonitrile]
10 to 100 nM | COc1cc(C(=O)NC2CCN(C3COC3)CC2)c(F)cc1Nc1nc(NC2(C)CC2)c2c(C#N)c[nH]c2n1 [Example 81, 4-((5-cyano-4-((1-methylcyclopropyl)amino)-7H-pyrrolo[2,3-]pyrimidine-2-yl)amino)-2-fluoro-5-methoxy-N-(1-(oxetane-3-yl)piperidine-4-yl)benzamide]
10 to 100 nM | COc1cc(C(=O)NC2CCN(C(C)C)CC2)c(F)cc1Nc1nc(NC2(C)CC2)c2c(C#N)c[nH]c2n1 [Example 82, 4-((5-cyano-4-((1-methylcyclopropyl)amino)-7H-pyrrolo[2,3-d]pyrimidine-2-yl)amino)-2-fluoro-N-(1-isopropylpiperidine-4-yl)-5-methoxybenzamide]
< 10 nM | COc1cc(C(=O)NC2CCN(C)CC2)c(F)cc1Nc1nc(NC2(C)CC2)c2c(C#N)c[nH]c2n1 [Example 83, 4-((5-cyano-4-((1-methylcyclopropyl)amino)-7H-pyrrolo[2,3-d]pyrimidine-2-yl)amino)-2-fluoro-5-methoxy-N-(1-methylpiperidine-4-yl)benzamide]
< 10 nM | COc1cc(C(=O)N2CCOCC2)ccc1Nc1nc(OC2CCOCC2)c2c(C#N)c[nH]c2n1 [Example 84, 2-((2-methoxy-4-(morpholine-4-carbonyl)phenyl)amino)-4-((tetrahydro-2H-pyran-4-yl)oxy)-7H-pyrrolo[2,3-d]pyrimidine-5-carbonitrile]
< 10 nM | COc1cc(C(=O)N2CCC(N3CCOCC3)CC2)ccc1Nc1nc(OC2CCOCC2)c2c(C#N)c[nH]c2n1 [Example 85]
< 10 nM | COc1cc(C(=O)N2CCOCC2)ccc1Nc1nc(OC2CCOC2)c2c(C#N)c[nH]c2n1 (stereo not drawn) [Example 86, 2-((2-methoxy-4-(morpholine-4-carbonyl)phenyl)amino)-4-((tetrahydrofuran-3-yl)oxy)-7H-pyrrolo[2,3-d]pyrimidine-5-carbonitrile]
< 10 nM | COc1cc(C(=O)N2CCC(N3CCOCC3)CC2)ccc1Nc1nc(OC2CCOC2)c2c(C#N)c[nH]c2n1 (stereo not drawn) [Example 87, 2-((2-methoxy-4-(4-morpholinopiperidine-1-carbonyl)phenyl)amino)-4-((tetrahydrofuran-3-yl)oxy)-7H-pyrrolo[2,3-d]pyrimidine-5-carbonitrile]
< 10 nM | COc1cc(C(=O)N2CCOCC2)ccc1Nc1nc(O[C@H]2CCOC2)c2c(C#N)c[nH]c2n1 [Example 88, (S)-2-((2-methoxy-4-(morpholine-4-carbonyl)phenyl)amino)-4-((tetrahydrofuran-3-yl)oxy)-7H-pyrrolo[2,3-d]pyrimidine-5-carbonitrile]
< 10 nM | COc1cc(C(=O)N2CCOCC2)ccc1Nc1nc(O[C@@H]2CCOC2)c2c(C#N)c[nH]c2n1 [Example 89, (R)-2-((2-methoxy-4-(morpholine-4-carbonyl)phenyl)amino)-4-((tetrahydrofuran-3-yl)oxy)-7H-pyrrolo[2,3-d]pyrimidine-5-carbonitrile]
< 10 nM | COc1cc(C(=O)N2CCOCC2)ccc1Nc1nc(OC(C)C)c2c(C#N)c[nH]c2n1 [Example 90, 4-isoprofoxy-2-((2-methoxy-4-(morpholine-4-carbonyl)phenyl)amino)-7H-pyrrolo[2,3-d]pyrimidine-5-carbonitrile]
< 10 nM | COc1cc(C(=O)N2CCC(N3CCOCC3)CC2)ccc1Nc1nc(OC(C)C)c2c(C#N)c[nH]c2n1 [Example 91, 4-isoprofoxy-2-((2-methoxy-4-(4-morpholinopiperidine-1-carbonyl)phenyl)amino)-7H-pyrrolo[2,3-d] pyrimidine-5-carbonitrile]
< 10 nM | COc1cc(C(=O)N2CCOCC2)c(F)cc1Nc1nc(O[C@H]2CCOC2)c2c(C#N)c[nH]c2n1 [Example 92, (S)-2-((5-fluoro-2-methoxy-4-(morpholine-4-carbonyl)phenyl)amino)-4-((tetrahydrofuran-3-yl)oxy)-7H-pyrrolo[2,3 d]pyrimidine-5-carbonitrile]
< 10 nM | COc1cc(C(=O)N2CCC(N3CCOCC3)CC2)c(F)cc1Nc1nc(O[C@H]2CCOC2)c2c(C#N)c[nH]c2n1 [Example 93, (S)-2-((5-fluoro-2-methoxy-4-(4-morpholinopiperidine-1-carbonyl)phenyl)amino)-4-((tetrahydrofuran-3-yl)oxy)-7H-pyrrolo[2,3-d]pyrimidine-5-carbonitrile]
< 10 nM | Cc1nn(C(C)(C)C#N)cc1Nc1nc(OC2(C)CC2)c2c(C#N)c[nH]c2n1 [Example 94, 2-((1-(2-cyanopropane-2-yl)-3-methyl-1H-pyrazole-4-yl)amino)-4-(1-methylcyclopropoxy)-7H-pyrrolo[2,3-d]pyrimidine-5-carbonitrile]
< 10 nM | COc1cc(C(=O)N2CCOCC2)ccc1Nc1nc(OC2(C)CC2)c2c(C#N)c[nH]c2n1 [Example 95, 2-((2-methoxy-4-(morpholine-4-carbonyl)phenyl)amino)-4-(1-methylcyclopropoxy)-7H-pyrrolo[2,3-d]pyrimidine-5-carbonitrile]
< 10 nM | CC1(Oc2nc(Nc3cnn([C@H]4CCN(C5COC5)C[C@@H]4F)c3Cl)nc3[nH]cc(C#N)c23)CC1 [Example 96, 2-((5-chloro-1-((3S,4S)-3-fluoro-1-(oxetane-3-yl)piperidine-4-yl)-1H-pyrazole-4-yl)amino)(1-methylcyclopropoxy)-7H-pyrrolo[2,3-]pyrimidine-5-carbonitrile]
< 10 nM | COc1cc(C(=O)N2CCOCC2)c(F)cc1Nc1nc(OC2(C)CC2)c2c(C#N)c[nH]c2n1 [Example 97, 2-((5-fluoro-2-methoxy-4-(morpholine-4-carbonyl)phenyl)amino)-4-(1-methylcyclopropoxy)-7H-pyrrolo[2,3-d]pyrimidine-5-carbonitrile]
10 to 100 nM | COc1cc(C(=O)N2CCO[C@H](C)C2)ccc1Nc1nc(OC2(C)CC2)c2c(C#N)c[nH]c2n1 [Example 98, (R)-2-((2-methoxy-4-(2-methylmorpholine-4-carbonyl)phenyl)amino)-4-(1-methylcyclopropoxy)-7H-pyrrolo[2,3d]carbonitrile]
< 10 nM | COc1cc(C(=O)N2CCO[C@@H](C)C2)ccc1Nc1nc(OC2(C)CC2)c2c(C#N)c[nH]c2n1 [Example 99, (S)-2-((2-methoxy-4-(2-methylmorpholine-4-carbonyl)phenyl)amino)-4-(1-methylcyclopropoxy)-7H-pyrrolo[2,3-d]pyrimidine-5-carbonitrile]
10 to 100 nM | COc1cc(C(=O)N2C[C@@H](C)O[C@@H](C)C2)ccc1Nc1nc(OC2(C)CC2)c2c(C#N)c[nH]c2n1 [Example 100, 2-((4-((2R,6S)-2,6-dimethylmorpholine-4-carbonyl)-2-methoxyphenyl)amino)-4-(1-methylcyclopropoxy)-7H-pyrrolo[2,3-d]pyrimidine-5-carbonitrile]
< 10 nM | CC1(Oc2nc(Nc3cnn([C@H]4CCN(C5COC5)C[C@@H]4F)c3)nc3[nH]cc(C#N)c23)CC1 [Example 101, 2-((1-((3S,4S)-3-fluoro-1-(oxetane-3-yl)piperidine-4-yl)-1H-pyrazole-4-yl)amino)-4-(1-methylcyclopropoxy)-7H-pyrrolo[2,3-d]pyrimidine-5-carbonitrile]
10 to 100 nM | CCNc1nc(Nc2cnn([C@H]3CCN(C4COC4)C[C@@H]3F)c2Cl)nc2[nH]cc(C(F)(F)F)c12 [Example 102, N^2-(5-chloro-1-((3S,4S)-3-fluoro-1-(oxetane-3-yl)piperidine-4-yl)-1H-pyrazole-4-yl)-N^4-ethyl-5-(trifluoromethyl)-7H-pyrrolo[2,3-d]pyrimidine-2,4-diamine]
